According to publication PMC7501296, “Rapid and direct control of target protein levels with VHL-recruiting dTAG molecules” (Nature Communications, 2020):
Values joined by “and” are separate entries in the source; they are usually repeats but may differ in a detail not shown here. Identical values can stand only once.

Columns and labels:
Assay type in all cases: cell-based
[1] = tested on: PATU-8902 LACZ-FKBP12^F36V clone; experiment: Antiproliferation, PATU-8902 LACZ-FKBP12F36V clone, 3D-spheroid (CellTiter-Glo); conditions: 120 h
How it was run: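 Viability of cells grown as ultra-low adherent 3D-spheroids was determined with the CellTiter-Glo reagent (Promega). Luminescence was read on either an Envision 2104 plate reader (PerkinElmer) or a Fluostar Omega Reader (BMG Labtech). The resulting data were analyzed with GraphPad PRISM v8.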

[2] = tested on: PATU-8902 FKBP12^F36V-KRAS^G12V; KRAS^-/- clone; experiment: Antiproliferation, PATU-8902 FKBP12F36V-KRASG12V; KRAS-/- clone, 2D-monolayer (CellTiter-Glo)
[3] = target: T1, FKBP12^WT-Nluc (Homo sapiens, UniProt P62942); experiment: FKBP12WT-Nluc dual luciferase assay (293FT); conditions: 293FT, 24 h
T1 construct: expressed in transfected cells; host or cells: 293FT
T1 sequence (P62942 2-108 limits assumed): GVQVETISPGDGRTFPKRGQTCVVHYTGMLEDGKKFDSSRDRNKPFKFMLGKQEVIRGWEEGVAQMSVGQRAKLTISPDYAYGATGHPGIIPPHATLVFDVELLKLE
How it was run: (§1)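 293FT cells expressing FKBP12^WT-Nluc or FKBP12^F36V-Nluc with Fluc were treated with compound for 24 h at 37 °C. Fluc, then Nluc, luminescence was read with Dual-Glo reagents. Values are DMSO-normalised Nluc/Fluc ratios.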

[4] = target: T2, FKBP12^F36V-Nluc (Homo sapiens, UniProt P62942, F37V); experiment: FKBP12F36V-Nluc dual luciferase assay (293FT); conditions: 293FT, 24 h
T2 construct: expressed in transfected cells; host or cells: 293FT
T2 sequence (P62942 2-108 F37V limits assumed): as the sequence (P62942 2-108 limits assumed) above, with F36V counted along it
How it was run: as §1

[5] = tested on: PATU-8902 LACZ-FKBP12^F36V clone; experiment: Antiproliferation, PATU-8902 LACZ-FKBP12F36V clone, 2D-monolayer (CellTiter-Glo)
How it was run: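 Viability of cells grown as 2D-adherent monolayers was determined with the CellTiter-Glo luminescent reagent (Promega). Luminescence signals were read on either an Envision 2104 plate reader (PerkinElmer) or a Fluostar Omega Reader (BMG Labtech), and the resulting data were processed and analyzed in GraphPad PRISM v8 software.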

[6] = log10[compound] (M) -5.69897, replicate values
[7] = log10[compound] (M) -6.19897, replicate values
[8] = log10[compound] (M) -6.69897, replicate values
[9] = log10[compound] (M) -7.19897, replicate values
[10] = log10[compound] (M) -7.69897, replicate values
[11] = log10[compound] (M) -8.19897, replicate values
[12] = log10[compound] (M) -8.69897, replicate values
[13] = log10[compound] (M) -9.19897, replicate values
[14] = log10[compound] (M) -9.69897, replicate values
[15] = log10[compound] (M) -10.199, replicate values

CCC(C(=O)N1CCCCC1C(=O)OC(CCc1ccc(OC)c(OC)c1)c1ccccc1OCC(=O)NCCCCCCC(=O)NC(C(=O)N1CC(O)CC1C(=O)NC(C)c1ccc(-c2scnc2C)cc1)C(C)(C)C)c1cc(OC)c(OC)c(OC)c1 (centres unmarked) [dTAG^V-1-NEG]
DMSO-normalized antiproliferation ([1]; log10[compound] (M) -5.69897, single replicates): 68.4913 and 65.8862 and 68.8321 and 78.0465 | DMSO-normalized antiproliferation ([1]; log10[compound] (M) -6.19897, single replicates): 88.8571 and 103.865 and 101.246 and 98.2508 | DMSO-normalized antiproliferation ([1]; log10[compound] (M) -6.69897, single replicates): 91.2022 and 101.677 and 109.864 and 107.932 | DMSO-normalized antiproliferation ([1]; log10[compound] (M) -7.19897, single replicates): 113.68 and 101.811 and 126.495 and 101.479 | DMSO-normalized antiproliferation ([1]; log10[compound] (M) -7.69897, single replicates): 124.531 and 121.356 and 110.765 and 105.317 | DMSO-normalized antiproliferation ([1]; log10[compound] (M) -8.19897, single replicates): 119.921 and 92.6191 and 101.851 and 115.03 | DMSO-normalized antiproliferation ([1]; log10[compound] (M) -8.69897, single replicates): 108.505 and 98.1611 and 108.837 and 115.846 | DMSO-normalized antiproliferation ([1]; log10[compound] (M) -9.19897, single replicates): 113.362 and 108.537 and 123.253 and 101.067 | DMSO-normalized antiproliferation ([1]; log10[compound] (M) -9.69897, single replicates): 112.187 and 102.493 and 128.974 and 86.9201 | DMSO-normalized antiproliferation ([1]; log10[compound] (M) -10.199, single replicates): 94.0987 and 98.1746 and 115.316 and 84.3777 | DMSO-normalized antiproliferation [2, 6]: 4.32 and 6.388 and 6.155 and 5.991 | DMSO-normalized antiproliferation [2, 7]: 32.3489 and 36.7324 and 47.9927 and 46.6785 | DMSO-normalized antiproliferation [2, 8]: 83.4764 and 91.9957 and 98.0856 and 85.7695 | DMSO-normalized antiproliferation [2, 9]: 140.095 and 133.654 and 96.5457 and 87.6299 | DMSO-normalized antiproliferation [2, 10]: 124.703 and 107.666 and 124.781 and 104.227 | DMSO-normalized antiproliferation [2, 11]: 100.524 and 126.087 and 110.25 and 83.3074 | DMSO-normalized antiproliferation [2, 12]: 126.672 and 110.141 and 94.4012 and 101.209 | DMSO-normalized antiproliferation [2, 13]: 119.782 and 117.251 and 170.771 and 120.652 | DMSO-normalized antiproliferation [2, 14]: 93.2126 and 100.867 and 84.0534 and 89.6654 | DMSO-normalized antiproliferation [2, 15]: 113.321 and 95.7713 and 117.376 and 100.982 | Effect on FKBP12WT-Nluc (in words) [3]: no activity | Degradation of FKBP12F36V-Nluc (in words) [4]: no activity | DMSO-normalized antiproliferation [5, 6]: 11.5867 and 14.0973 and 18.4019 and 18.5068 | DMSO-normalized antiproliferation [5, 7]: 63.5123 and 73.6517 and 63.5598 and 74.3207 | DMSO-normalized antiproliferation [5, 8]: 93.1863 and 113.355 and 96.7633 and 104.117 | DMSO-normalized antiproliferation [5, 9]: 100.081 and 106.556 and 105.951 and 130.27 | DMSO-normalized antiproliferation [5, 10]: 138.495 and 100.848 and 147.738 and 83.6486 | DMSO-normalized antiproliferation [5, 11]: 143.617 and 87.8737 and 136.886 and 159.708 | DMSO-normalized antiproliferation [5, 12]: 153.483 and 88.4456 and 121.366 and 127.155 | DMSO-normalized antiproliferation [5, 13]: 128.036 and 98.5375 and 110.326 and 91.7687 | DMSO-normalized antiproliferation [5, 14]: 126.211 and 97.7702 and 97.5063 and 90.8491 | DMSO-normalized antiproliferation [5, 15]: 118.887 and 87.4707 and 131.584 and 99.1889
